Structures can show the parent of a compound that is named as a salt.
What was measured:
Male ICR mice [1] = assay: Nicotine conditioned place preference; format: in vivo, mouse
Male ICR mice [2] = assay: Activity counts in the drug-paired compartment on CPP test day; format: in vivo, mouse; conditions: mean ± S.E.M., n=6-8
[3] = Plasma nicotine and cotinine levels in the CPP test; format: in vivo, mouse
Male ICR mice [4] = assay: Mecamylamine-precipitated nicotine withdrawal: somatic signs; format: in vivo, mouse; conditions: methoxsalen 15 mg/kg i.p. 15 min before nicotine 2 mg/kg s.c. three times daily for 4 days; mecamylamine 2 mg/kg s.c. on day 5
Male ICR mice [5] = assay: Mecamylamine-precipitated nicotine withdrawal: elevated plus maze; format: in vivo, mouse
human CYP2A6 = conditions: ref Zhang et al., 2001; Damaj et al., 2007; cited from earlier work
Male ICR mice [6] = assay: Spontaneous nicotine withdrawal and its reversal: hot plate hyperalgesia; format: in vivo, mouse; conditions: chronic nicotine 36 mg/kg/day in minipumps for 7 days, after removing the mini pumps
Male ICR mice [7] = conditions: chronic nicotine 36 mg/kg/day in minipumps for 7 days, after removing the mini pumps
[8] = CYP2A(4/5) null mouse; ref Wei et al., 2013; cited from earlier work

Row | SMILES | Nicotine conditioned place preference (Male ICR mice [1]; methoxsalen 45 mg/kg i.p. 15 min prior to nicotine 0.1 mg/kg s.c.) | Nicotine conditioned place preference (Male ICR mice [1]; methoxsalen 15 and 30 mg/kg i.p. 15 min prior to nicotine 0.1 mg/kg s.c.) | Activity counts in the drug-paired compartment on test day (Male ICR mice [2]; methoxsalen 15 mg/kg i.p. + nicotine 0.1 mg/kg s.c.) | Activity counts in the drug-paired compartment on test day (Male ICR mice [2]; methoxsalen 15 mg/kg i.p. + saline) | Activity counts in the drug-paired compartment on test day (Male ICR mice [2]; methoxsalen 30 mg/kg i.p. + nicotine 0.1 mg/kg s.c.) | Activity counts in the drug-paired compartment on test day (Male ICR mice [2]; methoxsalen 30 mg/kg i.p. + saline) | Activity counts in the drug-paired compartment on test day (Male ICR mice [2]; methoxsalen 45 mg/kg i.p. + nicotine 0.1 mg/kg s.c.) | Activity counts in the drug-paired compartment on test day (Male ICR mice [2]; methoxsalen 45 mg/kg i.p. + saline) | Effect on nicotine plasma levels ([3]; highest dose of methoxsalen (45 mg/kg i.p.) before nicotine 0.1 mg/kg s.c.) | Effect on nicotine plasma levels ([3]; methoxsalen 15, 30, 45 mg/kg i.p. 15 min before nicotine 0.1 mg/kg s.c., blood 20 min after nicotine, last conditioning day) | Somatic withdrawal signs (Male ICR mice [4]) | Number Crossovers (Mean ± SEM) in the plus-maze test (Male ICR mice [5]; Methoxsalen 15 mg/kg i.p. / Vehicle / Mecamylamine 2 mg/kg s.c., 5 min, n=5-7) | Average time spent in open arms (elevated plus maze) (Male ICR mice [5]; methoxsalen 15 mg/kg i.p. 15 min before nicotine 2 mg/kg s.c. three times daily for 4 days, mecamylamine 2 mg/kg s.c. on day 5) | Inhibition of human CYP2A6 (human CYP2A6) | Nicotine conditioned place preference (Male ICR mice [1]; nicotine 0.1 mg/kg s.c. alone (vehicle pretreatment), vs vehicle-treated group) | Time spent on the hot-plate in spontaneous withdrawal (Male ICR mice [6]) | Number of somatic signs in spontaneous withdrawal (Male ICR mice [7]) | Decrease in rate of nicotine clearance [8] [%]
1 | COc1c2occc2cc2ccc(=O)oc12 [Methoxsalen, 8-methoxypsoralen] | no longer significant | produced a significant CPP | 524 ± 69 | 561 ± 83 | 488 ± 111 | 470 ± 105 | 513 ± 103 | 503 ± 89 | doubled | significantly increased | significant somatic withdrawal signs | 6.0 ± 0.8 | further decrease | potent inhibitor |  |  |  | 
2 | CN1CCC[C@H]1c1cccnc1 [Nicotine, (−)-1-Methyl-2-(3-pyridyl) pyrrolidine (+)-bitartrate salt] |  |  |  |  |  |  |  |  |  |  |  |  |  |  | did not induce place preference | decreased | significantly increased | 90

From publication PMC4106981 (Neuropharmacology, 2014)
